Data as given in patent US7105663B2, “Derivatives of pyrimido[6,1-a]isoquinolin-4-one” (Rhinopharma Limited, priority 1999, dated 2006).
Values belong to the compound of their own block, whether it stands above or below them.

Assays:
[1] = test system: LPS induced TNF-α release from human monocytes; assay: LPS induced TNF-α release from human monocytes; type: cell-based; conditions: Monocyte
[2] = test system: recruitment of eosinophils to the lungs; assay: Antigen induced eosinophilia in the ovalbumin sensitised guinea-pig; type: in vivo
Method: 3. […] Further experiments were carried out to characterise the duration of action in this model.

[3] = test system: histamine induced bronchospasm; assay: Histamine induced bronchospasm in guinea-pigs after dry powder exposure; type: in vivo, guinea-pig; conditions: dry powder 2.5 and 25% in lactose, over a 5.5 hour period
Method: 1. The compound of Example 1, 9,10-Dimethoxy-2-(2,4,6-trimethylphenylimino)-3-(N-carbamoyl-2-aminoethyl)-3,4,6,7-tetrahydro-2H-pyrimido[6,1-a]isoquinolin-4-one, was tested in a model of histamine induced bronchospasm. Conscious guinea-pigs were exposed to dry powder (micronised) compound. The drug was blended with lactose so that the final concentration was 0.25, 2.5 and 25%. At various times after exposure to drug the animals were anaesthetised and challenged with varying doses of histamine. Total airway resistance and mean arterial blood pressure were recorded.

[4] = test system: human mononuclear cells stimulated by PHA; assay: Proliferation of human mononuclear cells stimulated by PHA ([3H]-thymidine); type: cell-based
Method: Normal healthy volunteers underwent phlebotomy and 25 ml of blood was collected. Mononuclear cells were separated and purified according to the method of Banner et al (Banner et al Br. J. Pharmacol. 116 3169–3174 (1995)). Human peripheral mononuclear cells (100,000 per well) were stimulated for 24 h with phytohaemagglutinin (PHA, 2 μ/ml) in the absence or presence of the compound of Example 1 (0.001–100 μM) at 37° C. in a 95% air, 5% CO2 atmosphere. Twenty four hours later, [3H]-thymidine (0.1 μCi) was added to each well and the cells were incubated for a further 24 h period. Cells were then harvested onto glass fibre filters using a cell harvester (ICN Flow, Buckinghamshire) and counted in a scintillation counter.

PDE4 (human neutrophil) = assay: Inhibition of phosphodiesterase (PDE) type 4 isoenzyme; type: biochemical
[5] = Intravenous administration to urethane anaesthetised guinea-pigs, mean arterial blood pressure; type: in vivo, guinea-pig; conditions: intravenous 1 to 100 μg/kg, evidence that the compound had come out of solution
Method: 2. […] The compound was dissolved in DMSO then diluted with saline (there was evidence that the compound had come out of solution).

PDE3 (human platelet) = target: T1, PDE3 (human platelet) (Homo sapiens, UniProt Q14432); assay: Inhibition of phosphodiesterase (PDE) type 3 isoenzyme; type: biochemical
T1 construct: (human platelet); from tissue; host or cells: human platelets
T1 sequence (Q14432 whole entry): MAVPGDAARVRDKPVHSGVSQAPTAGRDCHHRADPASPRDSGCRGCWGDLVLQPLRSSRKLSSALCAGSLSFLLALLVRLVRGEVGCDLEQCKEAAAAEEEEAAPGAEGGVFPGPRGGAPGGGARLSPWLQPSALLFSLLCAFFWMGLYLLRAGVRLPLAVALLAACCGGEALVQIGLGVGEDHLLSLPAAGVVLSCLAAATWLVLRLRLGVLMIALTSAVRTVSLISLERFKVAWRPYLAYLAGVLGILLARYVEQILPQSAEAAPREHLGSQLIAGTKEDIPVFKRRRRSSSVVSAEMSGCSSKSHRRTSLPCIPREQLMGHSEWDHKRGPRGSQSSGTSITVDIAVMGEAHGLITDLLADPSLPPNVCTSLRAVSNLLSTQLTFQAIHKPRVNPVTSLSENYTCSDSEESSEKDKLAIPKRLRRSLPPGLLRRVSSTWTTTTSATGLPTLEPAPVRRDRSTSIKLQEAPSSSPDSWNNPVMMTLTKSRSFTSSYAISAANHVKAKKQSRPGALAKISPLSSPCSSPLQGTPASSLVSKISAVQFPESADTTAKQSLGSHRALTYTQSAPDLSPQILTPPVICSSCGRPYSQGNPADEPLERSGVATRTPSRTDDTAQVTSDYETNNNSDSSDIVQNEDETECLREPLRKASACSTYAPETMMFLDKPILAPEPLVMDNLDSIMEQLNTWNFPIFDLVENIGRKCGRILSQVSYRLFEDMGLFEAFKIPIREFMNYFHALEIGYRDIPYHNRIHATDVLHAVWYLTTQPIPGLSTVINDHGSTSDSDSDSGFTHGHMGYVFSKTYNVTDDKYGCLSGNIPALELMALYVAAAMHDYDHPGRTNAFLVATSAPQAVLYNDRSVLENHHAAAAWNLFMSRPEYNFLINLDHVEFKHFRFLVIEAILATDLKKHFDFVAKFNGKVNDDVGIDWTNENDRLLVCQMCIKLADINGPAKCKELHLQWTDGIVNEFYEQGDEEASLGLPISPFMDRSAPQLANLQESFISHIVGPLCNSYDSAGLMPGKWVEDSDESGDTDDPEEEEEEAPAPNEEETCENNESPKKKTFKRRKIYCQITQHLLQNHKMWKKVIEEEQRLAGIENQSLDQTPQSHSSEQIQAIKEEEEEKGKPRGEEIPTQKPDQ

[6] = test system: guinea-pig isolated trachea; assay: Electrical-induced contraction of guinea-pig isolated trachea (superfused tracheal rings, electrical field stimulation); conditions: 10 μM
Method: Superfusion of guinea-pig tracheal rings was performed according to a previously described method (Coleman et al. 1996; Pulmonary Pharmacology, 9, 107–117). Briefly, guinea-pig tracheal preparations were cut into rings then opened by sectioning the ring opposite the smooth muscle and suspended between two platinum electrodes under 1 g tension. The tissues were superfased at a rate of 3.25 ml/min with Krebs-Henseleit solution at 37° C. containing the cyclooxygenase inhibitor, indomethacin (5 μM) and bubbled with 95% O2 and 5% CO2. Tracheal preparations were allowed to equilibrate for 40 min before commencement of electrical stimulation delivered as a 10 s train of square wave pulses at 3 Hz, 0.1 ms duration and 20V (approx. 400 mAmps) generated every 100 sec by means of physiological square wave-stimulator.
The compound of Example 1 was dissolved in DMSO containing Tween 80 (10%) and distilled water (0.01 M), which were then added to the organ bath to give a final concentration of 10 μM. The other compounds were prepared in DMSO and diluted in Krebs-Henseleit solution which yielded a final superfusion concentration of 0.05% DMSO, and superfused at a rate of 0.3 ml/min; contractile responses to electrical field stimulation was recorded on a Macintosh computer using MacLab software.

IC50 ([1]; n = 6): 92 nM
Structure (SMILES): COc1ccc([C@H](Cc2ccncc2)c2ccccc2)cc1OC1CCCC1 [CDP 840]

IC50 (PDE4 (human neutrophil)): 1480 nM
IC50 ([1]; n = 6): 7.5 nM
IC50 (PDE3 (human platelet)): 0.43 nM
Structure (SMILES): COc1cc2c(cc1OC)-c1c/c(=N\c3c(C)cc(C)cc3C)n(CCNC(N)=O)c(=O)n1CC2 [Example 1, 9,10-Dimethoxy-2-(2,4,6-trimethylphenylimino)3-(N-carbamoyl-2-aminoethyl)-3,4,6,7-tetrahydro-2H-pyrimido[6,1-a]isoquinolin-4-one]
recruitment of eosinophils to the lungs following antigen challenge ([2]; 10 mg/kg orally 1 hour prior to antigen challenge): significantly inhibited
recruitment of eosinophils to the lungs following antigen challenge ([2]; dry powder (25%) 1.5 hours prior to antigen challenge, measured 24 hours after challenge): significantly inhibited
recruitment of eosinophils to the lungs following antigen challenge ([2]; dry powder (25%) 5.5 hours before antigen challenge): failed to significantly inhibit
protection against histamine induced bronchospasm ([3]; conscious guinea-pigs): significant protection
mean blood pressure ([3]; guinea-pigs): reduced mean blood pressure
proliferation of human mononuclear cells stimulated by PHA ([4]; 0.001–100 μM): significantly inhibited
IC50 ([4]; Homo sapiens, 95% confidence limits in brackets, n=6, read-out: IC50 against proliferation of human mononuclear cells stimulated with PHA): 460 nM
mean arterial blood pressure [5]: dose dependant reduction
effect on contractile responses (electrical-induced contraction of guinea-pig isolated trachea) [6]: inhibit the contractile responses with a long duration of action

Structure (SMILES): COc1cc2c(cc1OC)-c1c/c(=N\c3c(C)cc(C)cc3C)n(CCN/C(N)=N/[N+](=O)[O-])c(=O)n1CC2 [Example 8, 9,10-Dimethoxy-3-[N-(N′-nitro)-2-guanidinoethyl]-2-(2,4,6-trimethylphenylimino)-3,4,6,7-tetrahydro-2H-pyrimido[6,1-a]isoquinolin-4-one]
effect on contractile responses (electrical-induced contraction of guinea-pig isolated trachea) [6]: inhibit the contractile responses with a long duration of action

Structure (SMILES): COc1cc2c(cc1OC)-c1c/c(=N\c3c(C)cc(C)cc3C)n(CCNC(=O)NC3CCCCC3)c(=O)n1CC2 [Example 9]
effect on contractile responses (electrical-induced contraction of guinea-pig isolated trachea) [6]: inhibit the contractile responses with a long duration of action

Structure (SMILES): COc1cc2c(cc1OC)-c1c/c(=N\c3ccccc3C)n(CCNC(N)=O)c(=O)n1CC2 [Example 10, 3-(N-Carbamoyl-2-aminoethyl)-9,10-dimethoxy-2-(2-methylphenylimino)-3,4,6,7-tetrahydro-2H-pyrimido[6,1-a]isoquinolin-4-one]
effect on contractile responses (electrical-induced contraction of guinea-pig isolated trachea) [6]: inhibit the contractile responses with a long duration of action

Structure (SMILES): COc1cc2c(cc1OC)-c1c/c(=N\c3c(C(C)C)cccc3C(C)C)n(CCNC(N)=O)c(=O)n1CC2 [Example 11]
effect on contractile responses (electrical-induced contraction of guinea-pig isolated trachea) [6]: inhibit the contractile responses with a long duration of action

Structure (SMILES): CN/C(=N\C#N)NCCn1c(=O)n2c(c/c1=N\c1c(C)cc(C)cc1C)-c1cc(OC)c(OC)cc1CC2 [Example 13, 3-[N-(N′-Cyano-N″-methyl)-2-guanidinoethyl]-9,10-dimethoxy-2-(2,4,6-trimethyl-phenylimino)-3,4,6,7-tetrahydro-2H-pyrimido[6,1-a]isoquinolin-4-one]
effect on contractile responses (electrical-induced contraction of guinea-pig isolated trachea) [6]: inhibit the contractile responses with a long duration of action

IC50 [1]: > 100000 nM
Structure (SMILES): CN/C(=N\c1ccc(C2=NNC(=O)CC2C)cc1)NC#N (stereo not shown) [Siguazodan]
